# Patent US20260091050A1, “ADVANTAGEOUS ANTI-HCV COMBINATION THERAPY” (Atea Pharmaceuticals, Inc., priority 2021, published 2026)
# Several values for one entry are separate records, joined by “and”; a condition that tells them apart may be missing. Equal values may be shown once. Read-outs that look alike come from different tables or passages of the source.
# Columns and labels:
# [1] = Accelerated stability (40 ± 2° C./75 ± 5% RH) of Compound 1-A over 6 months; format: physicochemical
# Protocol: (§1) Three conditions were tested: accelerated stability (40±2° C./[…]) over a 6-month time period, ambient stability (25±2° C./[…]) over a 9-month period, and stability under refrigerator conditions (5±3° C.) over a 9-month time period. The results for accelerated stability, ambient stability, and refrigerator conditions are shown in Table 23, Table 24, and Table 25, respectively.
# [2] = Stability under refrigerator conditions (5 ± 3° C.) of Compound 1-A over 9 months; format: physicochemical
# Protocol: as §1
# [3] = Single ascending dose study of Compound 1-A in healthy volunteers (Part A); format: in vivo, human
# Protocol: Compound 1-A was tested in a single ascending dose (SAD) study to measure its safety, tolerability, and pharmacokinetic in healthy subjects (Part A). Part A was a randomized, double-blind, placebo-controlled SAD study. Healthy subjects in Part A received a single dose of Compound 1-A or placebo in the fasting state. Subjects were confined to the clinic from Day −1 to Day 6.
# Dosing in each cohort was staggered such that 2 subjects (1 active:1 placebo) were evaluated for 48 hours after dosing before the remainder of the cohort was dosed. Each cohort received Compound 1-A in ascending order. Dosing of sequential cohorts occurred based on review of available safety data (through Day 5) and plasma pharmacokinetic data (through 24 h) of the prior cohort.
# As pharmacokinetic and safety data emerged from prior cohorts, doses evaluated in Cohorts 3a-4a were adjusted by increments no more than 100 mg.
# Healthy volunteers in the Part A portion of the study were male and female subjects between the ages of 18 and 65. Active and placebo recipients were pooled within each Part A cohort to preserve the study blind.
# GT1 HCV = experiment: Single ascending dose study of Compound 1-A in GT1-HCV infected patients (Part B); format: in vivo, human; settings: for Mean Max Reduction of HCV RNA from baseline: GT1b HCV patients
# Protocol: Subjects in Part B received a single dose of Compound 1-A in the fasting state. Patients were confined to the clinic from Day −1 to Day 6.
# Part B was initiated after the safety (through Day 5) and plasma pharmacokinetic (through 24 h) data review from Cohort 3a in Part A. Available safety data (through Day 5) and pharmacokinetic data (through 24 h) was reviewed for the first cohort in Part B (Cohort 1b) before enrolling subsequent Part B cohorts. Subsequent Part B cohorts were only dosed following review of available safety and pharmacokinetic data from the respective doses in Part A as well as available safety (through Day 5) from the prior Part B cohorts.
# Patients infected with HCV were treatment-naïve, non-cirrhotic GT1-infected subjects with a viral load of ≥5 log10 IU/mL.
# Baseline was defined as the mean of Day −1 and Day 1 (pre-dose). […] The mean maximum HCV RNA reduction 24 hours post-dose following a single 300 mg dose was 1.7 log10 IU/mL and this compares to a −2 log 10 IU/mL reduction after 1 day of 400 mg of sofosbuvir monotherapy in GT1a HCV-infected subjects. The mean maximum HCV RNA reduction 24 hours post-dose following a single 100 mg dose was 0.8 log10 IU/mL. The mean 10 maximum HCV RNA reduction was 2.2 log10 IU/mL following a single 400 mg dose.
# GT1, GT2, or GT3 HCV = experiment: 600 mg QD for 7 days in Child-Pugh A cirrhotic patients with GT1, GT2 or GT3 HCV (Part E); format: in vivo, human; settings: for Mean Max Reduction / Mean Reduction After 24 hours / HCV RNA < LOQ (15 IU/mL): 600 mg of Compound 1-A; for HCV RNA < LOQ (15 IU/mL): subjects/total
# Protocol: Doses were administered as the Compound 1-A salt base. The free base Compound 1 equivalent is often given in parenthesis. […]
# HCV-infected patients were treatment-naïve with HCV RNA ≥5 log 10 IU/mL. HCV RNA was quantified using COBAS® AmpliPrep TaqMAN® v2.0 with LLQ of 15 IU/mL. Plasma drug levels were measured using LC-MS/MS. […] Mean ages of enrolled subjects were 44, 39, and 56 years in the non-cirrhotic GT1b 600 mg dose cohort, non-cirrhotic GT3 cohort, and the cirrhotic cohort, respectively.
# HCV = settings: cited from earlier work; for viral load reduction, individual: cirrhotic
smiles,measurement,setting,value
"CNc1nc(N)nc2c1ncn2[C@@H]1O[C@H](CO[P@@](=O)(N[C@@H](C)C(=O)OC(C)C)Oc2ccccc2)[C@@H](O)[C@@]1(C)F [Compound 1-A, isopropyl ((S)-(((2R,3R,4R,5R)-5-(2-amino-6-(methylamino)-9H-purin-9-yl)-4-fluoro-3-hydroxy-4-methyltetrahydrofuran-2-yl)methoxy) (phenoxy)phosphoryl)-L-alaninate hemisulfate]",Appearance,[1]; 0 month,White
same,Assay,[1]; 0 month,98.8%
same,IR,[1]; 0 month,correspond
same,Related Substance 1 Any other single impurity,[1]; 0 month,0.01%
same,Related Substance 1 Total Impurities,[1]; 0 month,0.01%
same,Water,[1]; 0 month,0.45%
same,Appearance,[1]; 1st month,White
same,Assay,[1]; 1st month,101.5%
same,Related Substance 1 Any other single impurity,[1]; 1st month,0.02%
same,Related Substance 1 Total Impurities,[1]; 1st month,0.02%
same,Water,[1]; 1st month,0.21%
same,Appearance,[1]; 3rd month,White
same,Assay,[1]; 3rd month,99.6%
same,IR,[1]; 3rd month,correspond
same,Related Substance 1 Any other single impurity,[1]; 3rd month,0.01%
same,Related Substance 1 Total Impurities,[1]; 3rd month,0.02%
same,Water,[1]; 3rd month,0.36%
same,Appearance,[1]; 6th month,White
same,Assay,[1]; 6th month,99.5%
same,IR,[1]; 6th month,correspond
same,Related Substance 1 Any other single impurity,[1]; 6th month,0.05%
same,Related Substance 1 Impurity F,[1]; 6th month,0.01%
same,Related Substance 1 Total Impurities,[1]; 6th month,0.08%
same,Related Substance 2 Impurity G,[1]; 6th month,no detection
same,Water,[1]; 6th month,0.41%
same,Chemical stability (overall conclusion),"[1]; accelerated, ambient and refrigerator studies",very chemically stable
same,Appearance,"[2]; 5 ± 3° C., 0 month",White
same,Assay,"[2]; 5 ± 3° C., 0 month",98.8%
same,IR,"[2]; 5 ± 3° C., 0 month",correspond
same,Related Substance 1 Any other single impurity,"[2]; 5 ± 3° C., 0 month",0.01%
same,Related Substance 1 Total Impurities,"[2]; 5 ± 3° C., 0 month",0.01%
same,Water,"[2]; 5 ± 3° C., 0 month",0.45%
same,Appearance,"[2]; 5 ± 3° C., 1st month",White
same,Assay,"[2]; 5 ± 3° C., 1st month",101.1%
same,Related Substance 1 Any other single impurity,"[2]; 5 ± 3° C., 1st month",0.01%
same,Related Substance 1 Total Impurities,"[2]; 5 ± 3° C., 1st month",0.01%
same,Water,"[2]; 5 ± 3° C., 1st month",0.19%
same,Appearance,"[2]; 5 ± 3° C., 3rd month",White
same,Assay,"[2]; 5 ± 3° C., 3rd month",100.2%
same,IR,"[2]; 5 ± 3° C., 3rd month",correspond
same,Related Substance 1 Any other single impurity,"[2]; 5 ± 3° C., 3rd month",0.01%
same,Related Substance 1 Impurity B,"[2]; 5 ± 3° C., 3rd month",0.01%
same,Related Substance 1 Total Impurities,"[2]; 5 ± 3° C., 3rd month",0.03%
same,Water,"[2]; 5 ± 3° C., 3rd month",0.32%
same,Appearance,"[2]; 5 ± 3° C., 6th month",White
same,Assay,"[2]; 5 ± 3° C., 6th month",98.6%
same,IR,"[2]; 5 ± 3° C., 6th month",correspond
same,Related Substance 1 Any other single impurity,"[2]; 5 ± 3° C., 6th month",0.01%
same,Related Substance 1 Total Impurities,"[2]; 5 ± 3° C., 6th month",0.03%
same,Water,"[2]; 5 ± 3° C., 6th month",0.42%
same,Appearance,"[2]; 5 ± 3° C., 9th month",Off-white
same,Assay,"[2]; 5 ± 3° C., 9th month",101.4%
same,IR,"[2]; 5 ± 3° C., 9th month",correspond
same,Related Substance 1 Any other single impurity,"[2]; 5 ± 3° C., 9th month",0.01%
same,Related Substance 1 Total Impurities,"[2]; 5 ± 3° C., 9th month",0.01%
same,Water,"[2]; 5 ± 3° C., 9th month",0.32%
same,total impurities of related substance 1,[2]; after 9 months,0.0100
same,water content,[2]; after 9 months,0.3200
same,Chemical stability (conclusion),[2]; refrigerator conditions,very chemically stable
same,intensity of adverse effects,[3],mild to moderate
same,serious adverse events,"[3]; healthy subjects, single dose",No serious adverse events
same,mean maximum HCV RNA reduction,"GT1 HCV; 24 hours post-dose, single 100 mg dose",0.8 log10 IU/mL
same,mean maximum HCV RNA reduction,"GT1 HCV; 24 hours post-dose, single 300 mg dose, GT1b",1.7 log10 IU/mL
same,Mean Max Reduction of HCV RNA from baseline,"GT1 HCV; single dose, Compound 1-A equivalent of 92 mg Compound 1",0.8 log10 IU/ml
same,Mean Max Reduction of HCV RNA from baseline,"GT1 HCV; single dose, Compound 1-A equivalent of 275 mg Compound 1",1.7 log10 IU/ml
same,Mean Max Reduction of HCV RNA from baseline,"GT1 HCV; single dose, Compound 1-A equivalent of 368 mg Compound 1",2.2 log10 IU/ml
same,Mean Max Reduction of HCV RNA from baseline,"GT1 HCV; single dose, Compound 1-A equivalent of 550 mg Compound 1",2.3 log10 IU/ml
same,intensity of adverse effects,GT1 HCV; Part B,mild to moderate
same,serious adverse events,"GT1 HCV; Part B, GT1-HCV infected patients, single dose",No serious adverse events
same,mean maximum HCV RNA reduction,GT1 HCV; single 400 mg dose,2.2 log10 IU/mL
same,individual maximum HCV RNA reductions,"GT1 HCV; single 600 mg dose, non-cirrhotic GT1b",2.1 log10 IU/mL and 2.3 log10 IU/mL and 2.6 log10 IU/mL
same,mean maximum HCV RNA reduction,"GT1 HCV; single 600 mg dose, non-cirrhotic GT1b (n=3)",2.3 log10 IU/mL
same,time within which the parent is metabolized,"GT1 HCV; single oral dose of Compound 1-A, plasma",≤ 8 h
same,mean maximum HCV RNA reduction,"GT1, GT2, or GT3 HCV; 600 mg QD for 7 days, CPA cirrhotic",4.4 log10 IU/mL and 4.6 log10 IU/mL
same,Mean Max Reduction,"GT1, GT2, or GT3 HCV; GT1, Child-Pugh A (n = 3)",4.2 log10 IU/mL
same,Mean Reduction After 24 hours,"GT1, GT2, or GT3 HCV; GT1, Child-Pugh A (n = 3)",2.4 log10 IU/mL
same,HCV RNA < LOQ (15 IU/mL),"GT1, GT2, or GT3 HCV; GT1, Child-Pugh A (n = 3)",1/3
same,Mean Max Reduction,"GT1, GT2, or GT3 HCV; GT3, Child-Pugh A (n = 1)",4.8 log10 IU/mL
same,Mean Reduction After 24 hours,"GT1, GT2, or GT3 HCV; GT3, Child-Pugh A (n = 1)",2.2 log10 IU/mL
same,HCV RNA < LOQ (15 IU/mL),"GT1, GT2, or GT3 HCV; GT3, Child-Pugh A (n = 1)",0/1
same,HCV RNA reduction,"GT1, GT2, or GT3 HCV; cirrhotic GT1, within the first 24 hours",2.4 log10
same,HCV RNA reduction,"GT1, GT2, or GT3 HCV; cirrhotic GT3, within the first 24 hours",2.2 log10
same,viral load reduction,HCV; cirrhotic participants,4.6 log 10 IU/mL
same,"viral load reduction, individual","HCV; GT1b, listed as bemnifosbuvir",4.0 log 10 IU/mL (2×) and 4.5 log 10 IU/mL
same,"viral load reduction, individual",HCV; GT2,5.0 log 10 IU/mL
same,"viral load reduction, individual","HCV; GT3, listed as bemnifosbuvir",4.8 log 10 IU/mL and 5.2 log 10 IU/mL
same,viral load reduction,HCV; non-cirrhotic participants,4.5 log 10 IU/mL
